Consider three compounds from US8853274B1, “Compositions and methods for targeting glioblastomas cells” (Vanderbilt University, priority 2011, dated 2014).

Assay type in all cases: cell-based, human
Experiment [1] concerns T4302 CD133+ cells. The experiment is described as follows: Caspase 3/7 activation (apoptosis). The following applies: for apoptotic cell death: following 3-Gy X-ray radiation, 2 μM DAPT or 0.5 μM L685,458. How it is done:
(A) T4302 CD133+ GBM stem cells were enriched from freshly collected subcutaneous xenograft tumors, cultured in stem cell media. Cells were left unirradiated or irradiated at 3 Gy. The relative mRNA levels of Hes2 were determined by quantitative real-time PCR at the time points as indicated. (B) T4302 CD133+ cells were pre-treated with vehicle (DMSO), 2 μM DAPT or 0.5 μM L685,458 for 4 hours and irradiated as indicated. Cells were then plated to form neurospheres. Fourteen days after plating, neurospheres containing more than 50 cells were scored. To determine the surviving fractions, the number of neurosphere at each radiation dose was normalized to that of the corresponding sham-irradiated group. (C) T4302 CD133+ cells were treated with GSIs±radiation as indicated. Relative caspase 3/7 activities were determined by normalizing caspase activities to the corresponding cell numbers. (D), (E) T4302 CD133+ cells were infected with lentivirus directing expression of non-targeting shRNA or shRNAs specific to Notch1 or Notch2 (KD-Notch1 or KD-Notch2), and selected with puromycin. Relative caspase 3/7 activities and clonogenic survival were determined as described above. (F) T4302 CD133+ cells were infected with control lentivirus or lentivirus directing expression of NICD2. Clonogenic survival was determined as described above. *: p<0.05 by Student's t-test; #: p<0.01 by one-way ANOVA.
(A, B) T4302 CD133+ cells were treated with 100 nM RO4929097 (GSI) and/or 100 nM tipifarnib (FTI) for 4 hours prior to 3 Gy radiation. (A) Cell growth on day 5 and (B) caspase 3/7 activation on day 3 were determined as described in FIG. 4. #: p<0.001 by one-way ANOVA, combo vs. single agents. (C) The effects of GSIs and FTI against growth of T4302 CD133− cells were determined as described in panel A. (D, E) T4302 CD133+ cells were treated with GSI, FTI, or a 1:1 mixture at different concentrations (ranging from 3000 nM to ˜0.5 nM, 1:3 dilution)±3 Gy radiation. Cell viability was determined at 5 days after treatment in comparison to vehicle-treated groups. […] (F) T4302 CD 133+ cells were treated by GSI±FTI with a 2-fold dilution. Neurospheres were countered on day 10, and normalized to the vehicle-treated group.

Experiment [2] has as its system T4302 CD133+ cells. The experiment is described as follows: Neurosphere formation (clonogenic survival). The following applies: following 3-Gy X-ray radiation; 2 μM DAPT or 0.5 μM L685,458, 4 h pre-treatment. How it is done:
(A) T4302 CD133+ GBM stem cells were enriched from freshly collected subcutaneous xenograft tumors, cultured in stem cell media. Cells were left unirradiated or irradiated at 3 Gy. The relative mRNA levels of Hes2 were determined by quantitative real-time PCR at the time points as indicated. (B) T4302 CD133+ cells were pre-treated with vehicle (DMSO), 2 μM DAPT or 0.5 μM L685,458 for 4 hours and irradiated as indicated. Cells were then plated to form neurospheres. Fourteen days after plating, neurospheres containing more than 50 cells were scored. […] Relative caspase 3/7 activities were determined by normalizing caspase activities to the corresponding cell numbers. […] Relative caspase 3/7 activities and clonogenic survival were determined as described above. […] Clonogenic survival was determined as described above. *: p<0.05 by Student's t-test; #: p<0.01 by one-way ANOVA.
(A, B) T4302 CD133+ cells were treated with 100 nM RO4929097 (GSI) and/or 100 nM tipifarnib (FTI) for 4 hours prior to 3 Gy radiation. (A) Cell growth on day 5 and (B) caspase 3/7 activation on day 3 were determined as described in FIG. 4. #: p<0.001 by one-way ANOVA, combo vs. single agents. […] Cell viability was determined at 5 days after treatment in comparison to vehicle-treated groups. […]

Experiment [3] concerns CD133+ GBM stem cells. The experiment is described as follows: Growth inhibition within 5 days, panel of glioblastoma xenograft samples. The following applies: 5-day period; in combination with 3 Gy radiation. As to the method: CD133+ cells were derived from multiple glioblastoma xenograft samples as indicated. The growth inhibitory effects by GSI and/or FTIs were determined as described in FIG. 5.
Therefore, effective killing of GBM stem cells may delay or even prevent tumor recurrence. […] In combination with radiation, GSIs or FTIs alone reduced cell numbers by ˜75%.

In experiment [4] the test system is GBM 44. The experiment is described as follows: Growth inhibition at day 5, spheroid GBM culture. How it is done:
(A) Known genetic features of selected GBM samples. WT: wild type; Amp: amplification; vIII: EGFRvIII; ND: not determined. (B) Spheroid GBM cultures were derived from freshly collected subcutaneous tumors and cultured for 2 weeks in stem cell media to enrich stem cell-like cancer cells. SF7225 was maintained as a primary spheroid culture. Growth inhibition at day 5 after treatment was determined as described in FIG. 5. *: p<0.01 by Student's t-test and growth inhibition ≧30% vs. the corresponding vehicle-treated groups. #: p<0.01 and >30% growth inhibition vs. the radiation only groups.
Work is now extended to a set of subcutaneous GBM xenografts (GBM) established by Dr. Jann Sarkaria and colleagues at Mayo Clinic. These samples are known to have mutational status of EGFR, p53 and PTEN and different radiosensitivity (FIG. 8A) (69-71). Because the cancer stem cell identity of CD133+ of the Mayo Clinic samples has not been validated by functional assays, the present inventor used the neurosphere culture that is widely utilized as a surrogate of GSCs for its ability to enrich GSC-like population (72, 73). Tumor response to GSI, FTI and/or radiation was determined as growth inhibition on day 5 after treatment, with a greater than 30% cell number reduction was defined as positive response mimicking the RECIST criteria (FIG. 8B). […] Therefore, the present inventor will continuously expand the GBM panel and determine the genomic features of all samples with focus on prevalent GBM-associated aberrations. On the basis of this molecularly characterized tumor panel, the present inventor will start to explore the potential biomarkers that may predict tumor response to the combination therapy of radiation, GSI and FTI by experiments described in herein.

`C[C@H](NC(=O)Cc1cc(F)cc(F)c1)C(=O)N[C@H](C(=O)OC(C)(C)C)c1ccccc1` [DAPT]: the apoptotic cell death result in experiment [1] is “increased apoptotic cell death”. Moreover, in experiment [2], the clonogenic survival entry is given as “reduced clonogenic survival”.

For `CC(C)C[C@H](NC(=O)[C@H](Cc1ccccc1)C[C@@H](O)[C@H](Cc1ccccc1)NC(=O)OC(C)(C)C)C(=O)N[C@@H](Cc1ccccc1)C(N)=O` [L-685,458], the apoptotic cell death entry in experiment [1] is reported as “increased apoptotic cell death”. Moreover, the clonogenic survival result in experiment [2] is “reduced clonogenic survival”.

Turning to `Cn1cncc1[C@@](N)(c1ccc(Cl)cc1)c1ccc2c(c1)c(-c1cccc(Cl)c1)cc(=O)n2C` [tipifarnib], the “increase of caspase 3/7 activity compared with the sham-treated group” value in experiment [1] (following 3-Gy radiation, 100 nM, day 3) was “approximately 2 fold”. The “growth inhibition / reduction of cell numbers” value in experiment [3] was approximately 75%. Also, the “growth inhibition on day 5” value in experiment [4] (0 Gy) stood at 23.4±6.4%; in experiment [4] (3 Gy), 42±7.2%.
